Assay results as given in patent US20250179061A1 (SIRONAX LTD., priority 2022, published 2025).
Where two headings read alike, the source gives them in different places.

Tested on: HT-29 cells
Assay: HT-29 necroptosis cell viability assay (TNF-α/SMAC mimetic/zVAD-FMK, CellTiter-Glo)
Format: cell-based
Settings: Homo sapiens
Outline: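 HT-29 cells (~5,000/well, overnight) in FBS-free McCoy's 5A with TNF-α 10 ng/ml, SMAC mimetic 6 μM and zVAD-FMK 10 μM plus 10-point 1:3 compound titration, 20 h at 37°C. ATP measured by CellTiter-Glo luminescence; IC50 as geometric mean of duplicates.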

[1] = HT-29, HT-29 necroptosis cell viability assay, class symbols for IC50, read-out: Activity
[2] = HT-29, HT-29 necroptosis cell viability, IC50 class symbols, read-out: Activity
[3] = HT-29 cells stimulated with TNF-α (10 ng/ml), SMAC mimetic (6 μM) and zVAD-FMK (10 μM), 20 hours, CellTiter-Glo ATP luminescence, geometric mean IC50 from 10 points, read-out: Activity
[4] = HT-29, HT-29 cells, necroptosis induced by TNF-α/SMAC mimetic/zVAD-FMK, CellTiter-Glo, read-out: Activity (IC50 class)

CCNC(=O)c1nc(C)c(Oc2ccc(-n3ncn(Cc4c(F)cccc4F)c3=O)cc2F)s1 [Example 610, 5-(4-(4-(2,6-difluorobenzyl)-5-oxo-4,5-dihydro-1H-1,2,4-triazol-1-yl)-2-fluorophenoxy)-N-ethyl-4-methylthiazole-2-carboxamide]
IC50 [1]: < 100 nM

CC1(C#N)CN(c2cc(Oc3ccc(-n4ncn(Cc5c(F)cccc5F)c4=O)cc3)ccn2)C1 [Example 383, 1-(4-(4-(4-(2,6-difluorobenzyl)-5-oxo-4,5-dihydro-1H-1,2,4-triazol-1-yl)phenoxy)pyridin-2-yl)-3-methylazetidine-3-carbonitrile]
IC50 [2]: < 100 nM

Cc1nc(CO)cn1Cc1ccc(-n2nc3n(c2=O)C(c2ccccc2)CC3)cc1F (stereo not shown) [Example 220, 2-(3-fluoro-4-((4-(hydroxymethyl)-2-methyl-1H-imidazol-1-yl)methyl)phenyl)-5-phenyl-2,5,6,7-tetrahydro-3H-pyrrolo[2,1-c][1,2,4]triazol-3-one]
IC50 [1]: 100 to 1000 nM

CC1(O)CN(c2nc(C(F)F)c(Oc3ccc(-n4ncn(Cc5c(F)cccc5F)c4=O)cc3F)s2)C1 [Example 144, 4-(2,6-difluorobenzyl)-2-(4-((4-(difluoromethyl)-2-(3-hydroxy-3-methylazetidin-1-yl)thiazol-5-yl)oxy)-3-fluorophenyl)-2,4-dihydro-3H-1,2,4-triazol-3-one]
IC50 [1]: < 100 nM

Cc1nc(C2CC(C#N)C2)sc1Oc1ccc(-n2ncn(Cc3c(F)cccc3F)c2=O)cc1F (stereo not shown) [Example 40, 3-(5-(4-(4-(2,6-difluorobenzyl)-5-oxo-4,5-dihydro-1H-1,2,4-triazol-1-yl)-2-fluorophenoxy)-4-methylthiazol-2-yl)cyclobutane-1-carbonitrile]
IC50 [3]: < 100 nM

O=c1n(-c2ccc(N3CCOc4ccccc43)cc2)nc(Cl)n1Cc1ccccc1 [Example 681, 4-benzyl-5-chloro-2-(4-(2,3-dihydro-4H-benzo[b][1,4]oxazin-4-yl)phenyl)-2,4-dihydro-3H-1,2,4-triazol-3-one]
IC50 [4]: 100 to 1000 nM

Cc1nc(N2CC(N)(C(F)F)C2)sc1Oc1ccc(-n2ncn(Cc3c(F)cccc3F)c2=O)cc1F [Example 450, 2-(4-((2-(3-amino-3-(difluoromethyl)azetidin-1-yl)-4-methylthiazol-5-yl)oxy)-3-fluorophenyl)-4-(2,6-difluorobenzyl)-2,4-dihydro-3H-1,2,4-triazol-3-one]
IC50 [2]: < 100 nM

COC(=O)c1cn(Cc2ccc(-n3ncn(Cc4c(F)cccc4F)c3=O)cc2F)c(C)n1 [Example 210, methyl 1-(4-(4-(2,6-difluorobenzyl)-5-oxo-4,5-dihydro-1H-1,2,4-triazol-1-yl)-2-fluorobenzyl)-2-methyl-1H-imidazole-4-carboxylate]
IC50 [1]: 100 to 1000 nM

O=c1n(Cc2c(F)cccc2F)cnn1-c1ccc(Oc2cncs2)cc1 [Example 658]
IC50 [4]: < 100 nM

Cc1nc(CN2CCCC2)sc1Oc1ccc(-n2ncn(Cc3c(F)cccc3F)c2=O)cc1F [Example 212, 4-(2,6-difluorobenzyl)-2-(3-fluoro-4-((4-methyl-2-(pyrrolidin-1-ylmethyl)thiazol-5-yl)oxy)phenyl)-2,4-dihydro-3H-1,2,4-triazol-3-one]
IC50 [1]: < 100 nM

O=c1n(-c2ccc(Oc3cccnc3)cc2)nc(Cl)n1Cc1ccccc1 [Example 427, 4-benzyl-5-chloro-2-(4-(pyridin-3-yloxy)phenyl)-2,4-dihydro-3H-1,2,4-triazol-3-one]
IC50 [2]: < 100 nM

Cc1nc(C2CCNC2)sc1Oc1ccc(-n2ncn(Cc3c(F)cccc3F)c2=O)cc1 (stereo not shown) [Example 549, 4-(2,6-difluorobenzyl)-2-(4-((4-methyl-2-(pyrrolidin-3-yl)thiazol-5-yl)oxy)phenyl)-2,4-dihydro-3H-1,2,4-triazol-3-one]
IC50 [1]: < 100 nM

CCNC1CN(c2cc(Oc3ccc(-n4ncn(Cc5c(F)cccc5F)c4=O)cc3)ccn2)C1 [Example 318, 4-(2,6-difluorobenzyl)-2-(4-((2-(3-(ethylamino)azetidin-1-yl)pyridin-4-yl)oxy)phenyl)-2,4-dihydro-3H-1,2,4-triazol-3-one]
IC50 [2]: 100 to 1000 nM

Cc1ccc(C#N)n1Cc1ccc(-n2ncn(Cc3c(F)cccc3F)c2=O)cc1 [Example 206, 1-(4-(4-(2,6-difluorobenzyl)-5-oxo-4,5-dihydro-1H-1,2,4-triazol-1-yl)benzyl)-5-methyl-1H-pyrrole-2-carbonitrile]
IC50 [1]: 100 to 1000 nM

O=c1n(Cc2c(F)cccc2F)cnn1-c1ccc(Oc2nc(CO)cs2)cc1 [Example 96, 4-(2,6-difluorobenzyl)-2-(4-((4-(hydroxymethyl)thiazol-2-yl)oxy)phenyl)-2,4-dihydro-3H-1,2,4-triazol-3-one]
IC50 [3]: 100 to 1000 nM

Cc1nc([C@H](C)O)sc1Oc1ccc(-n2ncn(Cc3c(F)cccc3F)c2=O)cc1F (single isomer, unassigned) [Example 460]
IC50 [2]: < 100 nM

Cc1nc(C(C)(C)O)c(Oc2ccc(-n3ncn(Cc4c(F)cccc4F)c3=O)cc2F)s1 [Example 126, 4-(2,6-difluorobenzyl)-2-(3-fluoro-4-((4-(2-hydroxypropan-2-yl)-2-methylthiazol-5-yl)oxy)phenyl)-2,4-dihydro-3H-1,2,4-triazol-3-one]
IC50 [1]: 100 to 1000 nM

Cc1ncsc1Oc1ccc(-n2ncn(Cc3ccccc3F)c2=O)cc1F [Example 8, 2-(3-fluoro-4-((4-methylthiazol-5-yl)oxy)phenyl)-4-(2-fluorobenzyl)-2,4-dihydro-3H-1,2,4-triazol-3-one]
IC50 [3]: < 100 nM

Cc1nc(C2(O)COC2)sc1Oc1ccc(-n2nc3n(c2=O)[C@H](c2ccccc2)CC3)cc1F [Example 114, (S)-2-(3-fluoro-4-((2-(3-hydroxyoxetan-3-yl)-4-methylthiazol-5-yl)oxy)phenyl)-5-phenyl-2,5,6,7-tetrahydro-3H-pyrrolo[2,1-c][1,2,4]triazol-3-one]
IC50 [1]: < 100 nM

Cn1nc(C(N)=O)cc1Oc1ccc(-n2nc3n(c2=O)C(c2ccccc2)CC3)cc1F (stereo not shown) [Example 29, 5-(2-fluoro-4-(3-oxo-5-phenyl-6,7-dihydro-3H-pyrrolo[2,1-c][1,2,4]triazol-2(5H)-yl)phenoxy)-1-methyl-1H-pyrazole-3-carboxamide]
IC50 [3]: < 100 nM

Cc1ncsc1Oc1ccc(-n2ncn(Cc3c(F)cccc3F)c2=O)cc1Cl [Example 5, 2-(3-chloro-4-((4-methylthiazol-5-yl)oxy)phenyl)-4-(2,6-difluorobenzyl)-2,4-dihydro-3H-1,2,4-triazol-3-one]
IC50 [3]: < 100 nM

COC(=O)c1nc(C)c(Oc2ccc(-n3ncn(Cc4cc(Cl)ccn4)c3=O)cc2F)s1 [Example 575, methyl 5-(4-(4-((4-chloropyridin-2-yl)methyl)-5-oxo-4,5-dihydro-1H-1,2,4-triazol-1-yl)-2-fluorophenoxy)-4-methylthiazole-2-carboxylate]
IC50 [1]: 1000 to 10000 nM

Cn1nc(C(N)=O)cc1Oc1ccc(-n2nc3n(c2=O)[C@H](c2ccccc2)CC3)cc1F (single isomer, unassigned) [Example 30]
IC50 [3]: < 100 nM

Cc1nc(Br)sc1Oc1ccc(-n2ncn(Cc3ccccc3C#N)c2=O)cc1F [Example 6, 2-((1-(4-((2-bromo-4-methylthiazol-5-yl)oxy)-3-fluorophenyl)-5-oxo-1-5-dihydro-4H-1,2,4-triazol-4-yl)methyl)benzonitrile]
IC50 [3]: 100 to 1000 nM

N#Cc1ccc(Oc2ccc(-n3ncn(Cc4c(F)cccc4F)c3=O)cc2)cc1 [Example 435, 4-(4-(4-(2,6-difluorobenzyl)-5-oxo-4,5-dihydro-1H-1,2,4-triazol-1-yl)phenoxy)benzonitrile]
IC50 [2]: 100 to 1000 nM
